# Laboratory results published in US20170058314A1, “NOVEL METHODOLOGY FOR IDENTIFYING ANTI-PERSISTER ACTIVITY AND ANTIMICROBIAL SUSCEPTIBILITY FOR BORRELIA BURGDORFERI AND OTHER BACTERIA” (priority 2014, published 2017).
# How the values were obtained:
# [1] = tested on: round body form of B. burgdorferi; assay: SYBR Green I/PI assay on amoxicillin-induced round body form; details: for Ratios of green/red fluorescence, Primary screening / Ratios of green/red fluorescence, Rescreening (first column) / Ratios of green/red fluorescence, Rescreening (second column): round body form, 50 μM, 7 days
# [2] = tested on: stationary phase B. burgdorferi persisters (strain B31); assay: epifluorescence microscope counting after SYBR Green I/PI staining, FDA drug screen
# [3] = tested on: stationary phase B. burgdorferi persisters (strain B31); assay: SYBR Green I/PI viability assay (plate reader), FDA-approved drug library screen; details: for Ratio of Green/Red fluorescence, Primary screening / Ratio of Green/Red fluorescence, Rescreening (first column) / Ratio of Green/Red fluorescence, Rescreening (second column): 7 days, stationary phase
# [4] = tested on: log phase E. coli culture; assay: E. coli control, persister frequency by microscope counting after SYBR Green I/PI staining; assay type: cell-based, Escherichia coli; details: three hour log phase E. coli, 50 μg/mL amoxicillin for 3 hours
# [5] = tested on: log phase and stationary phase B. burgdorferi culture; assay: Antibiotic exposure assay, SYBR Green I/PI (drugs alone and combinations); details: Borreliella burgdorferi, 168 h, read-out: Live Cell % (residual viable B. burgdorferi), ten-day-old stationary phase culture enriched with micro-colonies, 10 μg/mL each drug, 7 days
# Method in brief: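 Stationary-phase or round-body B. burgdorferi exposed 7 days at 33 °C to drugs alone or combined at 10 μg/mL each (single-compound screen: 50 μM final). Viability by SYBR Green I/PI, ex 485, em 535/635 nm; percent live from regression of green/red ratio, corrected by direct microscopy counting.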
# [6] = tested on: B. burgdorferi log and stationary phase cultures; assay: epi-fluorescence microscope counting after antibiotic exposure (persister frequency, planktonic forms); assay type: cell-based, Borrelia burgdorferi
# Protocol: Specimens were examined on a Nikon Eclipse E800 microscope equipped with differential interference contrast (DIC) and epi-fluorescence illumination, and recorded with a Spot slider color camera. Cell proliferation assays were performed by direct counting using a bacterial counting chamber (Hausser Scientific Partnership) and DIC microscopy. SYBR Green I/PI assay was performed to assess the viability of B. burgdorferi. The ratio of live (green) and dead (red) B. burgdorferi was calculated by counting these cells using a bacterial counting chamber and epi-fluorescence microscopy. The three representative images of every sample were captured for quantitative analysis. Image Pro-Plus software was applied for measuring the biomass (fluorescence intensity) of different forms (spirochetes, round body, and microcolony) of B. burgdorferi as previously described (Shopov and Williams, 2000).
# To qualitatively determine the effect of antibiotics, 10 μL of each compound from the pre-diluted plate or pre-diluted stock was added to stationary phase B. burgdorferi culture in the 96-well plate. The final volume per well was adjusted to 100 μL at a concentration of 10 μg/mL for each antibiotic. Plates were sealed and placed in a 33° C. incubator for 7 days. The SYBR Green I/PI viability assay was used to assess the live and dead cells after antibiotic exposure as described (Feng, Wang, Shi, et al., 2014). Briefly, 10 μL of SYBR Green I (10,000×stock, Invitrogen) was mixed with 30 μL propidium iodide (PI, 20 mM) into 1.0 mL of sterile dH2O. Then, 10 μL of staining mixture was added to each well and mixed thoroughly. The plates were incubated at room temperature in the dark for 15 minutes followed by plate reading at excitation wavelength at 485 nm and the fluorescence intensity at 535 nm (green emission) and 635 nm (red emission) in microplate reader (HTS 7000 plus Bio Assay Reader, PerkinElmer Inc., USA). With least-square fitting analysis, the regression equation and regression curve of the relationship between percentage of live bacteria and green/red fluorescence ratios was obtained. The regression equation was used to calculate the percentage of live cells in each well of the 96-well plate.
# Therefore, the frequency of B. burgdorferi persisters in log phase and stationary phase cultures was assessed using the SYBR Green I/PI viability assay after exposure of the cultures to antimicrobials. E. coli culture was used as a control after exposure to antibiotics to validate the SYBR Green I/PI viability assay for persister frequency assessment.
# [7] = tested on: B. burgdorferi (growing, strain B31); assay: MIC determination, standard microdilution method; assay type: cell-based, Borrelia burgdorferi; details: for MIC: Borreliella burgdorferi, growing B. burgdorferi, read-out: MIC
# [8] = tested on: log phase E. coli culture; assay: E. coli control, persister frequency by standard plate colony count assay; assay type: cell-based, Escherichia coli; details: three hour log phase E. coli, 50 μg/mL amoxicillin for 3 hours
# [9] = tested on: stationary phase B. burgdorferi persisters (strain B31); assay: NCI compound library rescreen, epifluorescence microscope counting; details: Borreliella burgdorferi, 168 h
# [10] = tested on: stationary phase B. burgdorferi; assay: Subculture test of drug-treated stationary phase B. burgdorferi; assay type: cell-based, Borrelia burgdorferi
# Protocol: Seven-day-old B. burgdorferi culture (1×10^7 spirochetes/mL) (500 μL) was treated with drugs or drug combinations in Eppendorf tubes. After incubation at 33° C. for 7 days without shaking, the cells were collected by centrifugation and rinsed with 1 mL fresh BSK-H medium followed by resuspension in 500 μL fresh BSK-H medium without antibiotics. Then 50 μL of cell suspension was transferred to 1 mL fresh BSK-H medium for subculture at 33° C. for 2 weeks. Cell proliferation was assessed using SYBR Green I/PI assay and bacterial counting chamber (Hausser Scientific Partnership) by microscopy as described above.
# [11] = tested on: stationary phase B. burgdorferi persisters (strain B31); assay: NCI compound library screen, SYBR Green I/PI assay (plate reader)
# [12] = tested on: round body form of B. burgdorferi; details: 50 µM
# [13] = tested on: S. aureus; details: Zhu et al., 2005; cited from earlier work
# [14] = Borreliella burgdorferi, 168 h, read-out: Residual viable cells (SYBR Green I/PI assay)
# [15] = Borreliella burgdorferi, 168 h, read-out: Residual viable cells (epifluorescence microscope counting)
# [16] = read-out: Activity against persisters (residual viable cell percentage)
# [17] = read-out: Residual viable cells (epifluorescence microscope counting)
# [18] = 10 μg/mL, 7 days treatment, then subculture
# [19] = 50 μM, 7-day old stationary phase cells treated for 7 days
compound,measurement,setting,value
CC1(C)S[C@@H]2[C@H](NC(=O)[C@H](N)c3ccc(O)cc3)C(=O)N2[C@H]1C(=O)O [Amoxicillin],viability at 50 µM,[1]; [14],46%
same,"Ratios of green/red fluorescence, Primary screening",[1],6.53
same,"Ratios of green/red fluorescence, Rescreening (first column)",[1],6.59
same,"Ratios of green/red fluorescence, Rescreening (second column)",[1],6.52
same,viability at 50 µM,[2]; [15],76%
same,"Ratio of Green/Red fluorescence, Primary screening",[3]; 50 μM,7.98
same,"Ratio of Green/Red fluorescence, Rescreening (first column)",[3]; 50 μM,7.86
same,"Ratio of Green/Red fluorescence, Rescreening (second column)",[3]; 50 μM,7.82
same,viability at 50 µM,"[3]; Borreliella burgdorferi, 168 h, read-out: Residual viable cells (regression equation, SYBR Green I/PI assay)",76%
same,E. coli control Persister frequency (epi-fluorescence microscope counting after SYBR Green I/PI staining),[4],4.4%
same,E. coli control Persister frequency (epi-fluorescence microscope counting after SYBR Green I/PI staining),[4]; listed as amoxicillin,4.4%
same,viability at 10 µg/mL,[5],75%
same,"persister frequency (percentage of live cells after antibiotic treatment, in brackets)",[6]; 3-day log phase culture,(9.6%)
same,persister frequency (in brackets),[6]; 7-day stationary phase culture,(25%)
same,persister frequency (in brackets),[6]; 10-day stationary phase culture,(~27%)
same,MIC,[7],≤ 0.25 µg/mL
same,E. coli control Persister frequency (standard plate colony count assay),[8],0.9%
same,E. coli control Persister frequency (standard plate colony count assay),[8]; listed as amoxicillin,0.9%
same,viability at 50 µM,[9]; [16],77%
same,viability at 20 µM,[9]; read-out: Residual viable cells (%) 20 μM (epifluorescence microscope counting),77%
same,viability at 50 µM,[9]; read-out: Residual viable cells (%) 50 μM (epifluorescence microscope counting),77%
same,viability at 50 µM,[9]; [17],77%
same,G/R ratio immediately after treatment,"[10]; 10 μg/mL, 7 days",7.16
same,G/R ratio after 7 day subculture,[10]; [18],6.32
same,G/R ratio after 15 day subculture,[10]; [18],7.23
same,Spirochetes after 7 day subculture (microscope counting),[10]; [18],1 × 10^6
same,Spirochetes after 15 day subculture (microscope counting),[10]; [18],6 × 10^6
same,Spirochetes after 15 day subculture (microscope counting),"[10]; 10 μg/mL, 7 days treatment, then subculture, listed as amoxicillin",~5×10^6
same,viability at 10 µg/mL,[10]; [15],80%
same,Residual viable cells (SYBR Green I/PI assay),"[11]; 50 μM, seven day old stationary phase culture, 7 days",71%
same,viability at 20 µM,"[11]; Borreliella burgdorferi, 168 h, read-out: Residual viable cells (%) 20 μM (SYBR Green I/PI assay), 20 μM, seven day old stationary phase, 7 days",77%
CO[C@@H]1[C@@H](O[C@@H]2O[C@H](C)[C@@H](O[C@H]3C[C@@](C)(O)[C@@H](OC(=O)CC(C)C)[C@H](C)O3)[C@H](N(C)C)[C@H]2O)[C@@H](CC=O)C[C@@H](C)C(=O)/C=C/[C@@H]2O[C@@H]2C[C@@H](C)OC(=O)C[C@H]1OC(C)=O [Carbomycin],Residual viable cells (epifluorescence microscope counting),[2]; [19],41%
same,"Residual viable cells (regression equation, SYBR Green I/PI assay)",[3]; [19],37%
same,"Ratio of Green/Red fluorescence, Primary screening",[3]; 50 μM,6.37
same,"Ratio of Green/Red fluorescence, Rescreening (first column)",[3]; 50 μM,6.81
same,"Ratio of Green/Red fluorescence, Rescreening (second column)",[3]; 50 μM,6.32
same,Residual viable cells (SYBR Green I/PI assay),[12],43%
same,"sensitivity of log phase / multiplying B. burgdorferi (words, FIG. 12)",[7]; MIC test,very sensitive
N[C@@H](C(=O)N[C@@H]1C(=O)N2C(C(=O)O)=C(Cl)CC[C@H]12)c1ccccc1 [Loracarbef],"Ratios of green/red fluorescence, Primary screening",[1],6.35
same,"Ratios of green/red fluorescence, Rescreening (first column)",[1],6.25
same,"Ratios of green/red fluorescence, Rescreening (second column)",[1],6.24
same,Residual viable cells (SYBR Green I/PI assay),[12],33%
"COc1cccc2c1C(=O)c1c(O)c3c(c(O)c1C2=O)C[C@@](O)(C(C)=O)C[C@@H]3OC1CC(N)C(O)C(C)O1.Cl (some centres unmarked) [NSC82151, Daunorubicin hydrochloride]",MIC,[7],≤ 0.35 µg/mL
same,MIC against S. aureus,[13],8 to 32 µg/mL
same,viability at 50 µM,[9]; [16],10%
same,viability at 50 µM,[9]; [17],10%
same,viability at 50 µM,[11]; [14],0%
COc1cccc2c1C(=O)c1c(O)c3c(c(O)c1C2=O)C[C@@](O)(C(=O)CO)C[C@@H]3O[C@H]1C[C@H](N)[C@H](O)[C@H](C)O1 [doxorubicin],bactericidal activity by microscopic counting,[2]; FDA drug screen,no bactericidal activity
same,activity against stationary phase B. burgdorferi (words; SYBR Green I/PI assay),[3]; FDA drug screen,very high activity
same,MIC against S. aureus,[13],0.12 to 0.5 µg/mL
